# Measurements as given in ChEMBL document CHEMBL4411274, “Recent advances of tetrazole derivatives as potential anti-tubercular and anti-malarial agents” (Eur J Med Chem, 2019).
# Tests used:
# Mycobacterium kansasii [1] = test: Antibacterial activity against Mycobacterium kansasii isolate 6509/96; type: functional
# Mycobacterium avium = test: Antibacterial activity against Mycobacterium avium CNCTC My 330/88; type: functional
# Mycobacterium kansasii [2] = test: Antibacterial activity against Mycobacterium kansasii CNCTC My 235/80; type: functional
# [3] = system: Mycobacterium tuberculosis; test: Antibacterial activity against Mycobacterium tuberculosis CNCTC My 331/88; type: functional
# [4] = system: Mycobacterium tuberculosis; test: Antibacterial activity against Mycobacterium tuberculosis H37Rv by MABA; type: functional
# CHO-K1 = test: Cytotoxicity against CHOK1 cells after 24 hrs by MTT assay; type: cell-based; details: Cricetulus griseus, CHO-K1, 24 h
# [5] = system: Mycobacterium tuberculosis; test: Antibacterial activity against Mycobacterium tuberculosis H37Rv by resazurin dye-based assay; type: functional
# Plasmodium falciparum [6] = test: Antimalarial activity against Plasmodium falciparum K2 infected in human erythrocytes assessed as parasitemia after 48 hrs by YOYO-1 staining-based flow cytometric analysis; type: functional, organism-based; details: K2, 48 h
# Falcipain 2 = target: T1, Falcipain 2 (Plasmodium falciparum, UniProt Q9N6S8); test: Inhibition of Plasmodium falciparum falcipain-2 preincubated for 30 mins followed by Z-Leu-Arg-AMC substrate addition and measured up to 15 mins by spectrofluorometric analysis
# T1 sequence (Q9N6S8 whole entry): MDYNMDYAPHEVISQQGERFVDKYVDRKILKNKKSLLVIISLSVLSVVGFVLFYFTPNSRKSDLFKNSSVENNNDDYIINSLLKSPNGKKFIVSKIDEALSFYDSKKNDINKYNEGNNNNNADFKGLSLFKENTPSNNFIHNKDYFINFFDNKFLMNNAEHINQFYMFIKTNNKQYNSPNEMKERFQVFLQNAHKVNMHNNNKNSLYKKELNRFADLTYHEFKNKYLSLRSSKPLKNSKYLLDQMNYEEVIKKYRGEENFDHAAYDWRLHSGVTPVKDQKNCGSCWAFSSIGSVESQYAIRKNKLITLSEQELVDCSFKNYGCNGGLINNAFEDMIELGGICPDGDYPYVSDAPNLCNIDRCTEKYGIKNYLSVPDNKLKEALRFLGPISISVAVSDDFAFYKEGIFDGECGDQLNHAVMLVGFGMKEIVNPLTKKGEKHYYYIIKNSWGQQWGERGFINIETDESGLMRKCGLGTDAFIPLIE
# [7] = target: T2, Cysteine protease falcipain-3 (Plasmodium falciparum, UniProt Q9NAW4); test: Inhibition of Plasmodium falciparum falcipain-3 preincubated for 30 mins followed by Z-Leu-Arg-AMC substrate addition and measured up to 15 mins by spectrofluorometric analysis
# T2 sequence (Q9NAW4 whole entry): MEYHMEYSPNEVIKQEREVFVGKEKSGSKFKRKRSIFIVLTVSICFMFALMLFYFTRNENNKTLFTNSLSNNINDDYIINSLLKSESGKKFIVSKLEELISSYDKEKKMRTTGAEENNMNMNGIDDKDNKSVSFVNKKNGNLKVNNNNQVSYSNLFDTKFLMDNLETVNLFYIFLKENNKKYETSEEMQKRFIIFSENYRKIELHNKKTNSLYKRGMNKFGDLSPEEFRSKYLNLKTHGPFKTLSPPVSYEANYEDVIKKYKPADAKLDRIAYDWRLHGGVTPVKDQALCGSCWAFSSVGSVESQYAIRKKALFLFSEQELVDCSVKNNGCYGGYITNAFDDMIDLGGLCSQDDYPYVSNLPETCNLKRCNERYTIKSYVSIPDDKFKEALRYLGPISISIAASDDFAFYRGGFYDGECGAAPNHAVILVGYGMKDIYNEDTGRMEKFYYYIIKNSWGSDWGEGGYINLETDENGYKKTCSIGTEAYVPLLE
# Plasmodium falciparum [8] = test: Antimalarial activity against ring-stage multidrug-resistant Plasmodium falciparum Dd2 preincubated for 6 hrs followed by compound wash and measured after 66 hrs by Giemsa-staining based light microscopic analysis; type: functional, organism-based
# Plasmodium falciparum [9] = test: Antimalarial activity against ring-stage chloroquine-susceptible Plasmodium falciparum 3D7 preincubated for 6 hrs followed by compound wash and measured after 66 hrs by Giemsa-staining based light microscopic analysis; type: functional, organism-based
smiles,measurement,setting,value
Sc1nnnn1-c1ccc(Cl)cc1,MIC,Mycobacterium kansasii [1],250 to 500 µg/mL
same,MIC,Mycobacterium avium,250 to 500 µg/mL
same,MIC,Mycobacterium kansasii [2],250 to 500 µg/mL
same,MIC,[3],250 to 500 µg/mL
COc1cc(-c2nnnn2S(=O)(=O)c2ccc(Br)cc2)ccc1OCC(O)(Cn1cncn1)c1ccc(F)cc1F (stereo unspecified),MIC,[4],3.12 µg/mL
same,IC50,CHO-K1,> 150 µg/mL
Sc1nnnn1-c1ccc(Cl)c(Cl)c1,MIC,Mycobacterium kansasii [1],250 to 500 µg/mL
same,MIC,Mycobacterium avium,250 to 500 µg/mL
same,MIC,Mycobacterium kansasii [2],250 to 500 µg/mL
same,MIC,[3],250 to 500 µg/mL
CN(C)c1ccc(C2C(Cl)C(=O)N2NC(=O)Cn2nnnc2-c2ccccc2)cc1 (stereo unspecified),MIC,[5],0.156 µg/mL
COc1cc(-c2nnnn2S(=O)(=O)c2ccc(Br)s2)ccc1OCC(O)(Cn1cncn1)c1ccc(Cl)cc1Cl (stereo unspecified),MIC,[4],1.56 µg/mL
same,IC50,CHO-K1,> 150 µg/mL
COc1cc(-c2nnnn2S(=O)(=O)c2ccc([N+](=O)[O-])cc2)ccc1OCC(O)(Cn1cncn1)c1ccc(F)cc1F (stereo unspecified),MIC,[4],12.5 µg/mL
same,IC50,CHO-K1,> 150 µg/mL
O=C(Cn1nnc(-c2ccccc2)n1)NNC(=O)c1ccco1,IC50,Plasmodium falciparum [6],> 10 µM
same,IC50,Falcipain 2,6.67 to 43.9 µM
same,IC50,[7],6.67 to 43.9 µM
COc1ccc(NC(=O)Cn2nnc(-c3ccccc3NC(=O)c3cc(OC)cc(OC)c3)n2)cc1,IC50,Plasmodium falciparum [6],> 10 µM
same,IC50,Falcipain 2,6.67 to 43.9 µM
same,IC50,[7],6.67 to 43.9 µM
COc1ccc(-c2ccc(-c3nnn(CC(=O)c4ccccc4)n3)cc2)cc1,IC50,Plasmodium falciparum [6],> 10 µM
same,IC50,Falcipain 2,6.67 to 43.9 µM
same,IC50,[7],6.67 to 43.9 µM
COc1cc(-c2nnnn2S(=O)(=O)c2ccc(C(C)(C)C)cc2)ccc1OCC(O)(Cn1cncn1)c1ccc(Cl)cc1Cl (stereo unspecified),MIC,[4],1.56 to 12.5 µg/mL
same,IC50,CHO-K1,> 150 µg/mL
C[C@]12CC[C@@H]3c4ccc(OCCCCCCCSc5nnnn5-c5ccccc5)cc4CC[C@H]3[C@@H]1CCC2=O,MIC,Mycobacterium kansasii [1],≥ 500 µg/mL
same,MIC,Mycobacterium avium,≥ 500 µg/mL
same,MIC,Mycobacterium kansasii [2],≥ 500 µg/mL
same,MIC,[3],≥ 500 µg/mL
Cc1ccc(-n2nnnc2S)cc1,MIC,Mycobacterium kansasii [1],250 to 500 µg/mL
same,MIC,Mycobacterium avium,250 to 500 µg/mL
same,MIC,Mycobacterium kansasii [2],250 to 500 µg/mL
same,MIC,[3],250 to 500 µg/mL
C1C2CC3CC1CC(C2)C31OOC2(CCC(Nc3nnn[nH]3)CC2)O1 (stereo unspecified),IC50,Plasmodium falciparum [8],0.0025 µM
same,IC50,Plasmodium falciparum [9],0.0028 µM
O=C(Cn1nnnc1-c1ccccc1)NN1C(=O)C(Cl)C1c1ccccc1 (stereo unspecified),MIC,[5],> 6.25 µg/mL
COc1cc(-c2nnnn2S(=O)(=O)c2ccc([N+](=O)[O-])cc2)ccc1OCC(O)(Cn1cncn1)c1ccc(Cl)cc1Cl (stereo unspecified),MIC,[4],1.56 to 12.5 µg/mL
same,IC50,CHO-K1,> 150 µg/mL
C[C@]12CC[C@@H]3c4ccc(OCCCCCCCSc5nnnn5-c5ccc(Cl)c(Cl)c5)cc4CC[C@H]3[C@@H]1CCC2=O,MIC,Mycobacterium kansasii [1],≥ 500 µg/mL
same,MIC,Mycobacterium avium,≥ 500 µg/mL
same,MIC,Mycobacterium kansasii [2],≥ 500 µg/mL
same,MIC,[3],≥ 500 µg/mL
O=C(Cn1nnnc1-c1ccccc1)NN1C(=O)C(Cl)C1c1ccc([N+](=O)[O-])cc1 (stereo unspecified),MIC,[5],> 6.25 µg/mL
COc1ccc(S(=O)(=O)n2nnnc2-c2ccc(OCC(O)(Cn3cncn3)c3ccc(Cl)cc3Cl)c(OC)c2)cc1 (stereo unspecified),MIC,[4],1.56 to 12.5 µg/mL
same,IC50,CHO-K1,> 150 µg/mL
CC(C(=O)N1c2ccccc2CCc2ccccc21)n1nnc(-c2ccc(N3CCOCC3)cc2)n1 (stereo unspecified),IC50,Plasmodium falciparum [6],> 10 µM
same,IC50,Falcipain 2,6.67 to 43.9 µM
same,IC50,[7],6.67 to 43.9 µM
COc1cc(-c2nnnn2S(=O)(=O)c2ccc(C(C)(C)C)cc2)ccc1OCC(O)(Cn1cncn1)c1ccc(F)cc1F (stereo unspecified),MIC,[4],1.56 µg/mL
same,IC50,CHO-K1,> 150 µg/mL
O=C(Cn1nnnc1-c1ccccc1)NN1C(=O)C(Cl)C1c1ccc(Cl)cc1 (stereo unspecified),MIC,[5],> 6.25 µg/mL
Cc1ccc(-n2nnnc2SCCCCCCCOc2ccc3c(c2)CC[C@@H]2[C@@H]3CC[C@]3(C)C(=O)CC[C@@H]23)cc1,MIC,Mycobacterium kansasii [1],≥ 500 µg/mL
same,MIC,Mycobacterium avium,≥ 500 µg/mL
same,MIC,Mycobacterium kansasii [2],≥ 500 µg/mL
same,MIC,[3],≥ 500 µg/mL
Cn1nnc(NCC2CCC3(CC2)OOC2(O3)C3CC4CC(C3)CC2C4)n1 (stereo unspecified),IC50,Plasmodium falciparum [8],0.0021 µM
same,IC50,Plasmodium falciparum [9],0.0029 µM
CCCCOc1ccc(-c2nnn(CC(=O)c3ccc(Cl)cc3)n2)cc1,IC50,Plasmodium falciparum [6],> 10 µM
same,IC50,Falcipain 2,6.67 to 43.9 µM
same,IC50,[7],6.67 to 43.9 µM
CCCCOc1ccc(-c2nnn(CC(=O)Nc3c(C)ccc4ccccc34)n2)cc1,IC50,Plasmodium falciparum [6],> 10 µM
same,IC50,Falcipain 2,6.67 to 43.9 µM
same,IC50,[7],6.67 to 43.9 µM
COc1cc(-c2nnnn2S(=O)(=O)c2ccc(F)cc2)ccc1OCC(O)(Cn1cncn1)c1ccc(F)cc1F (stereo unspecified),MIC,[4],6.25 µg/mL
same,IC50,CHO-K1,> 150 µg/mL
